Read-outs that look alike come from different tables or passages of the source.
What was measured:
[1] = system: Bacteroides thetaiotaomicron; type: cell-based
Excerpt: (§1) The agar-dilution procedure described by the International Collaborative study (ICS) group was used to determine the minimum inhibitory concentrations (MIC's).

[2] = system: Fusobacterium necrophorum; test: agar-dilution MIC; type: cell-based; conditions: Fusobacterium necrophorum 6054A; Table 14
Staph. aureus = test: experimental bacterial infection in mice; type: in vivo; conditions: two doses subcutaneously
Description: All of the A41030 factors tested have shown in vivo antimicrobial activity against experimental bacterial infections. When two doses of test compound were administered subcutaneously to mice in illustrative infections, the activity observed is measured as an ED50 value [effective dose in mg./kg. to protect fifty percent of the test animals: See Warren Wick, et al., J. Bacteriol. 81, 233-235 (1961)].

Bacteroides vulgatis [3] = test: agar-dilution MIC; type: cell-based; conditions: B. vulgatis 1563; 24-hour; Table 12
Excerpt: (§2) The A41030 antibiotics, factors A, B, and C, are active against a genus of anaerobic bacteria identified as Bacteroides sp., the 24-hour MIC values being determined by the agar-dilution method, and are set forth in Table 12, which follows.

Bacteroides corrodens [4] = test: agar-dilution MIC; type: cell-based; conditions: B. corrodens 1874; 24-hour; Table 12
Excerpt: as §2

Peptococcus prevoti [5] = test: agar-dilution MIC; type: cell-based
Clostridium septicum = test: agar-dilution MIC; type: cell-based; conditions: Clostridium septicum 1128; Table 14
Hemophilus influenzae = test: agar-dilution MIC; type: cell-based; conditions: Table 17
Clostridium perfringens = type: cell-based; conditions: Clostridium perfringens 81; Table 14
[6] = system: Peptostreptococcus anaerobius; test: agar-dilution MIC; type: cell-based
Propionibacterium acnes = test: agar-dilution MIC; type: cell-based
Excerpt: Antibiotic A41030 factors A, B and C have also been tested and found to be active against a genus of anaerobic bacteria identified as Propionibacterium acnes.

[7] = system: Streptococcus sp. (Group D); test: agar-dilution MIC; type: cell-based; conditions: Table 17
Excerpt: as §1

Streptococcus pneumoniae = test: agar-dilution MIC; type: cell-based; conditions: Streptococcus pneumoniae Park I; Table 17
Excerpt: as §1

Streptococcus pyogenes = test: agar-dilution MIC; type: cell-based; conditions: Streptococcus pyogenes C203; Table 17
Excerpt: as §1

solubility = type: physicochemical
electrometric titration = type: physicochemical; conditions: electrometric titration in 66% dimethylformamide in water
Excerpt: Antibiotic A41030 factor A is a white, crystalline solid.

Bacteroides corrodens [8] = test: agar-dilution MIC; type: cell-based; conditions: Bacteroides corrodens 1874; Table 14
Staphylococcus aureus = test: agar-dilution MIC; type: cell-based; conditions: in µg/mL
[9] = system: Bacteroides melaninogenicus; test: agar-dilution MIC; type: cell-based; conditions: Bacteroides melaninogenicus 2736; Table 14
Fusobacterium symbiosum = test: agar-dilution MIC; type: cell-based; conditions: Fusobacterium symbiosum 1470; Table 14
[10] = system: Peptococcus asaccharolyticus; test: agar-dilution MIC; type: cell-based
Description: (§3) The MIC values were determined by the agar-dilution method, and are recorded in Table 15, which follows.

Peptococcus prevoti [11] = test: agar-dilution MIC; type: cell-based; conditions: Table 15
Description: as §3

Peptococcus magnus = test: agar-dilution MIC; type: cell-based; conditions: Table 15
Description: as §3

Peptococcus constellatus = test: agar-dilution MIC; type: cell-based; conditions: Pc. constellatus 1468; Table 15
Description: as §3

Bacteroides vulgatis [12] = test: agar-dilution MIC; type: cell-based; conditions: Bacteroides vulgatis 1211; Table 14
S. pyogenes = test: experimental bacterial infection in mice; type: in vivo; conditions: against S. pyogenes in mice; oral

A41030 factor C
MIC ([1]; B. thetaiotaomicron 1438, 24-hour, Table 12): 32 µg/mL
MIC ([1]; Bacteroides thetaiotaomicron 1438, Table 14): 64 µg/mL
MIC [2]: 16 µg/mL
ED50 (Staph. aureus): < 0.43 mg/kg
MIC (Bacteroides vulgatis [3]): 32 µg/mL
MIC (Bacteroides corrodens [4]): 32 µg/mL
MIC (Peptococcus prevoti [5]; Pc. prevoti 1281, Table 15): 1.0 µg/mL
MIC (Peptococcus prevoti [5]; Peptococcus prevoti 1281, Table 14): ≤ 0.25 µg/mL
MIC (Clostridium septicum): 8 µg/mL
MIC (Hemophilus influenzae; Haemophilus influenzae 251): 4 µg/mL
MIC (Hemophilus influenzae; Haemophilus influenzae Brun): 16 µg/mL
MIC (Clostridium perfringens): 1.0 µg/mL
MIC ([6]; Peptostreptococcus anaerobius 1428, Table 14): ≤ 0.25 µg/mL
MIC ([6]; Ps. anaerobius 52, Table 15): 0.25 µg/mL
MIC ([6]; Ps. anaerobius 59, Table 15): 0.25 µg/mL
MIC ([6]; Ps. anaerobius 1418, Table 15): ≤ 0.03 µg/mL
MIC ([6]; Ps. anaerobius 1428, Table 15): 0.25 µg/mL
MIC ([6]; Ps. anaerobius 1451, Table 15): 0.25 µg/mL
MIC ([6]; Ps. anaerobius 1477, Table 15): 0.25 µg/mL
MIC (Propionibacterium acnes; P. acnes 104, 24-hour, Table 13): 0.25 µg/mL
MIC (Propionibacterium acnes; P. acnes 5170, 24-hour, Table 13): ≤ 0.03 µg/mL
MIC (Propionibacterium acnes; P. acnes 5176, 24-hour, Table 13): ≤ 0.03 µg/mL
MIC (Propionibacterium acnes; P. acnes 5187, 24-hour, Table 13): 0.06 µg/mL
MIC (Propionibacterium acnes; P. acnes 5197, 24-hour, Table 13): ≤ 0.03 µg/mL
MIC (Propionibacterium acnes; P. acnes 5227, 24-hour, Table 13): 0.06 µg/mL
MIC (Propionibacterium acnes; P. acnes 5228, 24-hour, Table 13): 1.0 µg/mL
MIC (Propionibacterium acnes; P. acnes 5229, 24-hour, Table 13): 0.5 µg/mL
MIC (Propionibacterium acnes; P. acnes 5246, 24-hour, Table 13): 0.06 µg/mL
MIC (Propionibacterium acnes; P. acnes 5292, 24-hour, Table 13): 0.06 µg/mL
MIC (Propionibacterium acnes; Propionibacterium acnes 79, Table 14): ≤ 0.25 µg/mL
MIC ([7]; Streptococcus sp. Group D 9960): 4 µg/mL
MIC ([7]; Streptococcus sp. Group D X66): 2 µg/mL
MIC (Streptococcus pneumoniae): 1 µg/mL
MIC (Streptococcus pyogenes): 1 µg/mL
solubility (solvents) (solubility): soluble in the same solvents as factor A
possibly additional pKa's (electrometric titration): > 10
MIC (Bacteroides corrodens [8]): 32 µg/mL
MIC (Staphylococcus aureus): 1
MIC [9]: 4 µg/mL
MIC (Fusobacterium symbiosum): 1.0 µg/mL
MIC ([10]; Pc. asaccharolyticus 1344, Table 15): 1.0 µg/mL
MIC ([10]; Peptococcus asaccharolyticus 1302, Table 14): ≤ 0.25 µg/mL
MIC (Peptococcus prevoti [11]; Pc. prevoti 1293): 0.5 µg/mL
MIC (Peptococcus prevoti [11]; Pc. prevoti 1407): 1.0 µg/mL
MIC (Peptococcus magnus; Pc. magnus 1401): 0.25 µg/mL
MIC (Peptococcus magnus; Pc. magnus 1421): 0.25 µg/mL
MIC (Peptococcus magnus; Pc. magnus 1477): 0.5 µg/mL
MIC (Peptococcus constellatus): 0.5 µg/mL
MIC (Bacteroides vulgatis [12]): 32 µg/mL
in vivo oral activity (S. pyogenes): > 300 mg./kg. X 2

Reference: US4604239A, “Antibiotics” (Eli Lilly and Company, priority 1985, dated 1986)
